Drawing on US8927587B2, “Chemical compounds” (Pfizer Limited, priority 2012, dated 2015), this text covers IC50 for 33 compounds.

The target of the assay is T1, hNav1.8 (Homo sapiens, UniProt Q9Y5Y9).
T1 construct: host or cells: HEK cells, stably transfected
The assay is described as follows: hNav1.8 whole-cell patch-clamp electrophysiology (conventional or PatchXpress 7000) in stably transfected HEK cells. The assay is classed as cell-based. As to conditions: estimated IC50 calculated from single point % inhibition; HEK cells expressing hNav1.8; 8 sec prepulse to V1/2, 20 msec step to 0 mV; average of replicates; read-out: Nav1.8 EIC50. The text has this:
The ability of the benzimidazole derivatives of the formula (I) to inhibit the Nav1.8 channel may be measured using the assay described below.
HEK cells stably transfected with hNav1.8, purchased from Millipore (Millipore Corp., Billerica, Mass. 01821), were maintained according to manufacturer's instructions. For electrophysiological studies, cells were removed from the culture flask by brief trypsinization and re-plated at low density onto glass cover slips. Cells were typically used for electrophysiological experiments within 24 to 72 h after plating.
Cover slips containing HEK cells expressing hNav1.8 were placed in a bath on the stage of an inverted microscope and perfused (approximately 1 ml/min) with extracellular solution of the following composition: 138 mM NaCl, 2 mM CaCl2, 5.4 mM KCl, 1 mM MgCl2, 10 mM glucose, and 10 mM HEPES, pH 7.4, with NaOH. […] The osmolarity of the extracellular and intracellular solutions was 300 mOsm/kg and 295 mOsm/kg, respectively. All recordings were made at room temperature (22-24° C.) using AXOPATCH 200B amplifiers and PCLAMP software (Axon Instruments, Burlingame, Calif.).
hNav1.8 currents in HEK cells were measured using the whole-cell configuration of the patch-clamp technique (Hamill et al., 1981). Uncompensated series resistance was typically 2 to 5 mega ohms and >85% series resistance compensation was routinely achieved. As a result, voltage errors were negligible and no correction was applied. Current records were acquired at 20 to 50 KHz and filtered at 5 to 10 KHz.
HEK cells stably transfected with hNav1.8 were viewed under Hoffman contrast optics and placed in front of an array of flow pipes emitting either control or compound-containing extracellular solutions. All compounds were dissolved in dimethyl sulfoxide to make 10 mM stock solutions, which were then diluted into extracellular solution to attain the final concentrations desired.
The voltage-dependence of inactivation was determined by applying a series of depolarizing prepulses (8 sec long in 10 mV increments) from a negative holding potential. The voltage was then immediately stepped to 0 mV to assess the magnitude of the sodium current. Currents elicited at 0 mV were plotted as a function of prepulse potential to allow estimation of the voltage at which 50% of the channels were inactivated (midpoint of inactivation or V1/2). Compounds were tested for their ability to inhibit hNav1.8 sodium channels by activating the channel with a 20 msec voltage step to 0 mV following an 8 second conditioning prepulse to the empirically determined V1/2. Compound effect (% inhibition) was determined by difference in current amplitude before and after application of test compounds. For ease of comparison, “estimated IC50” values were calculated from single point electrophysiology data by the following equation, (tested concentration, uM)×(100-% inhibition/% inhibition). Inhibition values<20% and >80% were excluded from the calculation.
In some cases electrophysiological assays were conducted with PatchXpress 7000 hardware and associated software (Molecular Devices Corp). All assay buffers and solutions were identical to those used in conventional whole-cell voltage clamp experiments described above. hNav1.8 cells were grown as above to 50%-80% confluency and harvested by trypsinization. Trypsinized cells were washed and resuspended in extracellular buffer at a concentration of 1×10^6 cells/ml. The onboard liquid handling facility of the PatchXpress was used for dispensing cells and application of test compounds. Determination of the voltage midpoint of inactivation was as described for conventional whole-cell recordings. Cells were then voltage-clamped to the empirically determined V1/2 and current was activated by a 20 msec voltage step to 0 mV.
Estimated IC50 values for the compounds of formula (I) exemplified above are as follows. […]

T1 sequence (Q9Y5Y9 whole entry): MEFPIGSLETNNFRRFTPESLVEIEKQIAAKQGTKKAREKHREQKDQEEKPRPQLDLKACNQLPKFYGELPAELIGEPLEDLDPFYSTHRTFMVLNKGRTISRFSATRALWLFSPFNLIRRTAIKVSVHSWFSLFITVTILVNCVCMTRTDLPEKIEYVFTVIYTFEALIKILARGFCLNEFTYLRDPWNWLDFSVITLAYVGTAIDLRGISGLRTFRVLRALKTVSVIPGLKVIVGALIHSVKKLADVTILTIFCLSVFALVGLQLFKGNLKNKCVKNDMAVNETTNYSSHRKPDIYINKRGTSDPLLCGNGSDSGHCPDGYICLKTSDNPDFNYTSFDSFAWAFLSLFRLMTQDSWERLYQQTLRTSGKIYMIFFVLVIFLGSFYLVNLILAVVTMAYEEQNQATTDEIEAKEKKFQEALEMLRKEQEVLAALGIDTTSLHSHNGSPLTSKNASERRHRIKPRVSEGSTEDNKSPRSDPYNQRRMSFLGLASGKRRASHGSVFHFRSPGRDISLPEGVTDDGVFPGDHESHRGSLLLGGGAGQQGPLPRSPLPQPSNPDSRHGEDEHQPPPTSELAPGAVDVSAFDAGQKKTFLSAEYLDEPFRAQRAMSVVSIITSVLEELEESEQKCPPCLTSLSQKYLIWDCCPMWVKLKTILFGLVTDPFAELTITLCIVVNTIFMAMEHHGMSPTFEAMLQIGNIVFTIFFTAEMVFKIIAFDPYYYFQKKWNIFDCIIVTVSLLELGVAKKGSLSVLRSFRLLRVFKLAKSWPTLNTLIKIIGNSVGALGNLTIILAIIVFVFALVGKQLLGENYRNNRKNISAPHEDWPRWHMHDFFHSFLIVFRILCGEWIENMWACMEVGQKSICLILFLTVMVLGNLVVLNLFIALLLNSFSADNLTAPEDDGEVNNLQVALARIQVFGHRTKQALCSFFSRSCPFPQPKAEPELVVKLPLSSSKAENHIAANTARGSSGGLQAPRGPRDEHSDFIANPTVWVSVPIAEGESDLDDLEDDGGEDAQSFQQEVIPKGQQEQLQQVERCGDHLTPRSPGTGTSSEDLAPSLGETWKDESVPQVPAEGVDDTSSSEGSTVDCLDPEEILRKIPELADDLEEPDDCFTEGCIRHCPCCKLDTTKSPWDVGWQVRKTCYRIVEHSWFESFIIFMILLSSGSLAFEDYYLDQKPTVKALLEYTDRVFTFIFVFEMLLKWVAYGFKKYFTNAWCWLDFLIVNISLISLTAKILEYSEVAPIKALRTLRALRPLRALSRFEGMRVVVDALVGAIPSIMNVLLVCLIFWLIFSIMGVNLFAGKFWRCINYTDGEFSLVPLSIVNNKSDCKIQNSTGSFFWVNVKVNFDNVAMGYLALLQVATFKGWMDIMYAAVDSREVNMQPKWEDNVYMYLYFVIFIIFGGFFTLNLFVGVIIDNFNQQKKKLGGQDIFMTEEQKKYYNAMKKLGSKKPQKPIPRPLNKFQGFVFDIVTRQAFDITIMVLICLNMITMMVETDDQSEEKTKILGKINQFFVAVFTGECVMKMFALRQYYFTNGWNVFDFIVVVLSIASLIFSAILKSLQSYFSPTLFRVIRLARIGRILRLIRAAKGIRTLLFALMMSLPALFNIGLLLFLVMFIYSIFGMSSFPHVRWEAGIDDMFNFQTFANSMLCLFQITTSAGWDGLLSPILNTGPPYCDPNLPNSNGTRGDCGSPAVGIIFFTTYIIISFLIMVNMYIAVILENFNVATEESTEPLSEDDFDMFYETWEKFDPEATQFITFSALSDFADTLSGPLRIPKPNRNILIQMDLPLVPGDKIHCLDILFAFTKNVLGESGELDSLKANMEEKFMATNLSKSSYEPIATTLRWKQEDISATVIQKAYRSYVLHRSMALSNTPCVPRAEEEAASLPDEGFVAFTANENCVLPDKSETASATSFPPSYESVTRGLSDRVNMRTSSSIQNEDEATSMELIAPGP

For the compound `N#Cc1ccc(-c2ccc3[nH]c([C@@H](N)C4CCCC4)nc3c2)cc1` [Example 32, 4-{2-[(S)-Amino(cyclopentyl)methyl]-1H-benzimidazol-5-yl}benzonitrile], the IC50 was 163 nM.

As to `CCC(C)(C)c1ccc2[nH]c(C3(N)Cc4ccccc4C3)nc2c1` [Example 33, 2-[5-(2-Methylbutan-2-yl)-1H-benzimidazol-2-yl]-2,3-dihydro-1H-inden-2-amine], the IC50 was 266 nM.

For the compound `N#Cc1ccc(-c2ccc3[nH]c(C4(N)Cc5ccccc5C4)nc3c2)cc1` [Example 34, 4-[2-(2-Amino-2,3-dihydro-1H-inden-2-yl)-1H-benzimidazol-5-yl]benzonitrile], the IC50 was 30.6 nM.

On to `CCC(C)(C)c1ccc2[nH]c([C@H](C)N)nc2c1` [Example 35, (1S)-1-[5-(2-Methylbutan-2-yl)-1H-benzimidazol-2-yl]ethanamine], for which the IC50 is 171 nM.

Consider `N#Cc1ccc(-c2ccc3[nH]c([C@H](N)c4ccccc4)nc3c2)cc1` [Example 36, 4-{2-[(R)-Amino(phenyl)methyl]-1H-benzimidazol-5-yl}benzonitrile], for which the IC50 was 227 nM.

As to `CCC(C)(C)c1ccc2[nH]c([C@H]3NCC[C@@H]3O)nc2c1` [Example 37, (2R,3S)-2-[5-(2-Methylbutan-2-yl)-1H-benzimidazol-2-yl]pyrrolidin-3-ol], the IC50 was 650 nM.

Take `CCC(C)(C)c1ccc2[nH]c([C@@H](N)[C@@H](C)OC)nc2c1` [Example 38, (1R,2R)-2-Methoxy-1-[5-(2-methylbutan-2-yl)-1H-benzimidazol-2-yl]propan-1-amine]: the IC50 is 41.9 nM.

With `CCC(C)(C)c1ccc2[nH]c([C@@H](N)[C@@H](C)O)nc2c1` [Example 39, (1R,2R)-1-Amino-1-[5-(2-methylbutan-2-yl)-1H-benzimidazol-2-yl]propan-2-ol], the IC50 is 54.2 nM.

`C[C@@H](O)[C@H](N)c1nc2cc(-c3ccc(C#N)cc3)ccc2[nH]1` [Example 40, 4-{2-[(1R,2R)-1-Amino-2-hydroxypropyl]-1H-benzimidazol-5-yl}benzonitrile]: the IC50 was 77.1 nM.

Consider `CCC(C)(C)c1ccc2[nH]c([C@@H](C)N)nc2c1` [Example 41, (1R)-1-[5-(2-Methylbutan-2-yl)-1H-benzimidazol-2-yl]ethanamine], for which the IC50 was 648 nM.

For the compound `N#Cc1ccc(-c2ccc3[nH]c([C@@H](N)c4ccccc4)nc3c2)cc1` [Example 42, 4-{2-[(S)-Amino(phenyl)methyl]-1H-benzimidazol-5-yl}benzonitrile], the IC50 was 122 nM.

`N#Cc1ccc(-c2ccc3[nH]c([C@H]4C[C@@H](O)CN4)nc3c2)cc1` [Example 43, 4-{2-[(2R,4R)-4-Hydroxypyrrolidin-2-yl]-1H-benzimidazol-5-yl}benzonitrile]: the IC50 was 842 nM.

Turning to `N#Cc1ccc(-c2ccc3[nH]c([C@H](N)CC(N)=O)nc3c2)cc1` [Example 44, (3R)-3-Amino-3-[5-(4-cyanophenyl)-1H-benzimidazol-2-yl]propanamide], the IC50 was 890 nM.

For `N#Cc1ccc(-c2ccc3[nH]c([C@@H](N)CC(N)=O)nc3c2)cc1` [Example 45, (3S)-3-Amino-3-[5-(4-cyanophenyl)-1H-benzimidazol-2-yl]propanamide], the IC50 is 203 nM.

For `CC(C)C[C@@H](N)c1nc2cc(-c3ccc(C#N)cc3)ccc2[nH]1` [Example 47, 4-{2-[(1R)-1-Amino-3-methylbutyl]-1H-benzimidazol-5-yl}benzonitrile], the IC50 is 781 nM.

On to `CC(C)(C)[C@@H](N)c1nc2cc(-c3ccc(C#N)cc3)ccc2[nH]1` [Example 48, 4-{2-[(1R)-1-Amino-2,2-dimethylpropyl]-1H-benzimidazol-5-yl}benzonitrile], for which the IC50 is 469 nM.

Take `N#Cc1ccc(-c2ccc3[nH]c([C@@H]4C[C@H](O)CN4)nc3c2)cc1` [Example 49, 4-{2-[(2S,4S)-4-Hydroxypyrrolidin-2-yl]-1H-benzimidazol-5-yl}benzonitrile]: the IC50 is 1050 nM.

Turning to `N#Cc1ccc(-c2ccc3[nH]c([C@H]4NCC[C@@H]4O)nc3c2)cc1` [Example 50, 4-{2-[(2R,3S)-3-Hydroxypyrrolidin-2-yl]-1H-benzimidazol-5-yl}benzonitrile], the IC50 was 1840 nM.

Regarding `N#Cc1ccc(-c2ccc3[nH]c([C@@H]4CCCCN4)nc3c2)cc1` [Example 51, 4-{2-[(2S)-Piperidin-2-yl]-1H-benzimidazol-5-yl}benzonitrile], the IC50 was 3130 nM.

With `CC(C)[C@H](N)c1nc2cc(-c3ccc(C#N)cc3)ccc2[nH]1` [Example 52, 4-{2-[(1S)-1-amino-2-methylpropyl]-1H-benzimidazol-5-yl}benzonitrile], the IC50 was 703 nM.

In the case of `CC[C@@H](N)c1nc2cc(-c3ccc(C#N)cc3)ccc2[nH]1` [Example 53, 4-{2-[(1R)-1-aminopropyl]-1H-benzimidazol-5-yl}benzonitrile], the IC50 is 562 nM.

With `C[C@@H](N)c1nc2cc(-c3ccc(C#N)cc3)ccc2[nH]1` [Example 54, 4-{2-[(1R)-1-aminoethyl]-1H-benzimidazol-5-yl}benzonitrile], the IC50 was 662 nM.

As for `CC1(C)[C@@H]2[C@@H](c3nc4cc(-c5ccc(C#N)cc5)ccc4[nH]3)NC[C@@H]21` [Example 55, 4-{2-[(1R,2S,5S)-6,6-dimethyl-3-azabicyclo[3.1.0]hex-2-yl]-1H-benzimidazol-5-yl}benzonitrile], the IC50 is 77.4 nM.

`CC(C)[C@@H](N)c1nc2cc(-c3ccc(C#N)cc3)ccc2[nH]1` [Example 56, 4-{2-[(1R)-1-amino-2-methylpropyl]-1H-benzimidazol-5-yl}benzonitrile]: the IC50 is 97.5 nM.

As for `CC(C)(C)[C@H](N)c1nc2cc(-c3ccc(C#N)cc3)ccc2[nH]1` [Example 57, 4-{2-[(1S)-1-amino-2,2-dimethylpropyl]-1H-benzimidazol-5-yl}benzonitrile], the IC50 is 2530 nM.

Turning to `CCCC[C@@H](N)c1nc2cc(-c3ccc(C#N)cc3)ccc2[nH]1` [Example 58, 4-{2-[(1R)-1-aminopentyl]-1H-benzimidazol-5-yl}benzonitrile], the IC50 is 537 nM.

For `N#Cc1ccc(-c2ccc3[nH]c(C4(N)CCCC4)nc3c2)cc1` [Example 59, 4-[2-(1-aminocyclopentyl)-1H-benzimidazol-5-yl]benzonitrile], the IC50 was 105 nM.

In the case of `CCCC[C@H](N)c1nc2cc(-c3ccc(C#N)cc3)ccc2[nH]1` [Example 60, 4-{2-[(1S)-1-aminopentyl]-1H-benzimidazol-5-yl}benzonitrile], the IC50 was 166 nM.

`N#Cc1ccc(-c2ccc3[nH]c([C@@H]4C[C@H](F)CN4)nc3c2)cc1` [Example 61, 4-{2-[(2S,4S)-4-fluoropyrrolidin-2-yl]-1H-benzimidazol-5-yl}benzonitrile]: the IC50 is 698 nM.

Regarding `C[C@H](O)[C@@H](N)c1nc2cc(-c3ccc(C#N)cc3)ccc2[nH]1` [Example 62, 4-{2-[(1S,25)-1-amino-2-hydroxypropyl]-1H-benzimidazol-5-yl}benzonitrile], the IC50 was 580 nM.

With `C[C@H](N)c1nc2cc(-c3ccc(C#N)cc3)ccc2[nH]1` [Example 64, 4-{2-[(1S)-1-aminoethyl]-1H-benzimidazol-5-yl}benzonitrile], the IC50 is 1000 nM.

As for `CCCCc1ccc2[nH]c(C(C)(C)N)nc2c1` [Example 65, 2-(5-Butyl-1H-benzimidazol-2-yl)propan-2-amine], the IC50 is 2710 nM.

For `CC(C)(N)c1nc2cc(C3CCCCC3)ccc2[nH]1` [Example 66, 2-(5-Cyclohexyl-1H-benzimidazol-2-yl)propan-2-amine], the IC50 is 1000 nM.
